According to US20250195530A1, “POLQ INHIBITORS” (ASTRAZENECA AB, priority 2022, published 2025):
Like-named read-outs stand apart in the source and are kept apart here.

Tests used:
DLD-1 cells = test: Inhibition of proliferation, DLD-1 BRCA2 wt control (Cell Titre Glo 3D); assay type: cell-based; conditions: Homo sapiens
How it was run: (§1)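 DLD-1 BRCA2−/− (3,000 cells/mL) and parental DLD-1 (1,500 cells/mL) cells in phenol red-free RPMI 1640 with 10% FBS were exposed to a 10-point, three-fold compound series from 10 μM to 0.51 nM at 37 °C, 5% CO2. Medium and compound were replenished on day 6. CellTiter-Glo 3D luminescence was read on day 7 (DLD-1) or day 12 (BRCA2−/−), and IC50 was taken as 50% reduction of maximum signal.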

DLD-1 BRCA2−/− cells = test: Homologous recombination synthetic lethal inhibition of proliferation, DLD-1 BRCA2-/- (Cell Titre Glo 3D); assay type: cell-based; conditions: Homo sapiens
How it was run: as §1

[1] = DLD-1, 168 h, DLD-1 BRCA2 wt cells, 7 days, read-out: POLQ PD Prolif Lumin DLD1 mean pIC50 (converted)
[2] = DLD-1, 288 h, DLD-1 BRCA2−/− cells, 12 days, read-out: POLQ PD Prolif Lumin BRCA2 −/− mean pIC50 (converted)
[3] = DLD-1, DLD1 BRCA2 wt, mean, read-out: POLQ PD Prolif Lumin DLD1 mean pIC50 (converted)
[4] = DLD-1, DLD-1 BRCA2 −/−, mean, read-out: POLQ PD Prolif Lumin BRCA2 −/− mean pIC50 (converted)
[5] = DLD-1, second proliferation column (c6), DLD-1 BRCA2 wt control, read-out: POLQ PD Prolif Lumin (converted)
[6] = DLD-1, first proliferation column (c5), DLD-1 BRCA2-/-, read-out: POLQ PD Prolif Lumin (converted)

CN1CCN(CCOc2ccc(-c3nc4c(OC5(C)CC5)ncnc4n3Cc3ccccc3)c(C#N)c2)CC1 [Example H8, 2-(9-benzyl-6-(1-methylcyclopropoxy)-9H-purin-8-yl)-5-(2-(4-methylpiperazin-1-yl)ethoxy)benzonitrile]
IC50 (DLD-1 cells; [1]): > 10000 nM
IC50 (DLD-1 BRCA2−/− cells; [2]): 398 nM

Cc1nc(Cn2c(-c3ccc(OCCN4CCN(C)CC4)cc3Cl)nc3c(OC4(C)CC4)ncnc32)cs1 [Example 7, 4-((8-(2-Chloro-4-(2-(4-methylpiperazin-1-yl)ethoxy)phenyl)-6-(1-methylcyclopropoxy)-9H-purin-9-yl)methyl)-2-methylthiazole]
IC50 (DLD-1 cells; [1]): > 10000 nM
IC50 (DLD-1 BRCA2−/− cells; [2]): 794 nM

CC1(Oc2ncnc3c2nc(-c2ccc(OCCN4CCCNCC4=O)cc2Cl)n3Cc2ccccc2)CC1 [Example R12, 1-(2-(4-(9-benzyl-6-(1-methylcyclopropoxy)-9H-purin-8-yl)-3-chlorophenoxy)ethyl)-1,4-diazepan-2-one]
IC50 (DLD-1 cells; [1]): 2510 nM
IC50 (DLD-1 BRCA2−/− cells; [2]): 100 nM

COc1ccc(Cl)cc1Cn1c(-c2cccc(OCC[C@H](C)C(=O)O)c2Cl)nc2c(OC3(C)CC3)ncnc21 [Example U73, (S)-4-(2-chloro-3-(9-(5-chloro-2-methoxybenzyl)-6-(1-methylcyclopropoxy)-9H-purin-8-yl)phenoxy)-2-methylbutanoic acid]
IC50 (DLD-1 cells; [3]): > 10000 nM
IC50 (DLD-1 BRCA2−/− cells; [4]): 2 nM

CN1CCN(CCOc2ccc(-c3nc4c(OC5(C)CC5)ncnc4n3Cc3ncccn3)c(Cl)c2)CC1 [Example E6, 8-(2-chloro-4-(2-(4-methylpiperazin-1-yl)ethoxy)phenyl)-6-(1-methylcyclopropoxy)-9-(pyrimidin-2-ylmethyl)-9H-purine]
IC50 (DLD-1 cells; [1]): > 10000 nM
IC50 (DLD-1 BRCA2−/− cells; [2]): 1580 nM

CC1(Oc2ncnc3c2nc(-c2ccc(OCCN4CCC[C@H]4C(=O)O)cc2Cl)n3Cc2cccc(Cl)c2)CC1 [Example T551, (2-(3-chloro-4-(9-(3-chlorobenzyl)-6-(1-methylcyclopropoxy)-9H-purin-8-yl)phenoxy)ethyl)-L-proline]
IC50 (DLD-1 cells; [5]): > 10000 nM
IC50 (DLD-1 BRCA2−/− cells; [6]): 316 nM

COc1ccc(Cl)cc1Cn1c(-c2ccc(CCCC(C)C(=O)O)cc2Cl)nc2c(OC3(C)CC3)ncnc21 (racemic) [Example U56, 5-(3-chloro-4-(9-(5-chloro-2-methoxybenzyl)-6-(1-methylcyclopropoxy)-9H-purin-8-yl)phenyl)-2-methylpentanoic acid]
IC50 (DLD-1 cells; [3]): > 10000 nM
IC50 (DLD-1 BRCA2−/− cells; [4]): 126 nM

CC1(Oc2ncnc3c2nc(-c2ccc(/C=C/C(=O)O)cc2Cl)n3Cc2ccccc2)CC1 [Example M4, (E)-3-(4-(9-benzyl-6-(1-methylcyclopropoxy)-9H-purin-8-yl)-3-chlorophenyl)acrylic acid]
IC50 (DLD-1 cells; [1]): > 10000 nM
IC50 (DLD-1 BRCA2−/− cells; [2]): 631 nM

CC1(Oc2ncnc3c2nc(-c2ccc(OCCN4CCNC5(CC5)C4)cc2Cl)n3Cc2ccccc2)CC1 [Example R17, 8-(4-(2-(4,7-diazaspiro[2.5]octan-7-yl)ethoxy)-2-chlorophenyl)-9-benzyl-6-(1-methylcyclopropoxy)-9H-purine]
IC50 (DLD-1 cells; [1]): 1000 nM
IC50 (DLD-1 BRCA2−/− cells; [2]): 100 nM

Cc1cc(O[C@H]2CCNC2)ncc1-c1nc2c(OC3(C)CC3)ncnc2n1Cc1ccccc1 [Example G11, (S)-9-benzyl-8-(4-methyl-6-(pyrrolidin-3-yloxy)pyridin-3-yl)-6-(1-methylcyclopropoxy)-9H-purine]
IC50 (DLD-1 cells; [1]): 6310 nM
IC50 (DLD-1 BRCA2−/− cells; [2]): 1260 nM

Cc1ccnc(Cn2c(-c3ccc(N4CC[C@@H](O)C4=O)cc3Cl)nc3c(OC4(C)CC4)ncnc32)c1 [Example T181, (R)-1-(3-chloro-4-(6-(1-methylcyclopropoxy)-9-((4-methylpyridin-2-yl)methyl)-9H-purin-8-yl)phenyl)-3-hydroxypyrrolidin-2-one]
IC50 (DLD-1 cells; [5]): > 10000 nM
IC50 (DLD-1 BRCA2−/− cells; [6]): 316 nM

Cc1ccnc(Cn2c(-c3ccc(CCN(C)C)cc3Cl)nc3c(OC4(C)CC4)ncnc32)c1 [Example T236, 2-(3-chloro-4-(6-(1-methylcyclopropoxy)-9-((4-methylpyridin-2-yl)methyl)-9H-purin-8-yl)phenyl)-N,N-dimethylethan-1-amine]
IC50 (DLD-1 cells; DLD-1, DLD-1 BRCA2 wt control proliferation, column head only partly shown, read-out: POLQ PD Prolif Lumin (converted)): > 10000 nM
IC50 (DLD-1 BRCA2−/− cells; DLD-1, DLD-1 BRCA2-/- proliferation, column head only partly shown, read-out: POLQ PD Prolif Lumin (converted)): 251 nM

CC1(Oc2ncnc3c2nc(-c2ccc(O[C@H]4CCNC4)cc2Cl)n3Cc2ccccc2)CC1 [Example D17, (S)-9-benzyl-8-(2-chloro-4-(pyrrolidin-3-yloxy)phenyl)-6-(1-methylcyclopropoxy)-9H-purine]
IC50 (DLD-1 cells; [1]): 3160 nM
IC50 (DLD-1 BRCA2−/− cells; [2]): 100 nM

Cc1ccnc(Cn2c(-c3ccc(OCCN4CCCC4)cc3Cl)nc3c(OC4(C)CC4)ncnc32)c1 [Example T507, 8-(2-chloro-4-(2-(pyrrolidin-1-yl)ethoxy)phenyl)-6-(1-methylcyclopropoxy)-9-((4-methylpyridin-2-yl)methyl)-9H-purine]
IC50 (DLD-1 cells; [5]): > 10000 nM
IC50 (DLD-1 BRCA2−/− cells; [6]): 100 nM

CC1(Oc2ncnc3c2nc(-c2ccc(N4CCNC(=O)C4)cc2Cl)n3Cc2ccccc2)CC1 [Example M3, 4-(4-(9-benzyl-6-(1-methylcyclopropoxy)-9H-purin-8-yl)-3-chlorophenyl)piperazin-2-one]
IC50 (DLD-1 cells; [1]): 7940 nM
IC50 (DLD-1 BRCA2−/− cells; [2]): 501 nM

Cc1c(Cl)ccnc1Cn1c(-c2ccc(OCCN3CCNCC3)cc2Cl)nc2c(OC3(C)CC3)ncnc21 [Example T525, 9-((4-chloro-3-methylpyridin-2-yl)methyl)-8-(2-chloro-4-(2-(piperazin-1-yl)ethoxy)phenyl)-6-(1-methylcyclopropoxy)-9H-purine]
IC50 (DLD-1 cells; [5]): > 10000 nM
IC50 (DLD-1 BRCA2−/− cells; [6]): 1260 nM

Cc1ccnc(Cn2c(-c3cccc(OCCCN(C)C)c3Cl)nc3c(OC4(C)CC4)ncnc32)c1 [Example T386, 3-(2-chloro-3-(6-(1-methylcyclopropoxy)-9-((4-methylpyridin-2-yl)methyl)-9H-purin-8-yl)phenoxy)-N,N-dimethylpropan-1-amine]
IC50 (DLD-1 cells; DLD-1, second proliferation column (c6), taken as DLD-1 BRCA2 wt, read-out: POLQ PD Prolif Lumin (converted)): > 10000 nM
IC50 (DLD-1 BRCA2−/− cells; DLD-1, first proliferation column (c5), taken as DLD-1 BRCA2-/-, read-out: POLQ PD Prolif Lumin (converted)): 100 nM

CC1(Oc2ncnc3c2nc(-c2ccc(OCCN4CCNCC4)cc2Cl)n3Cc2cccc(C#N)n2)CC1 [Example K9, 6-((8-(2-chloro-4-(2-(piperazin-1-yl)ethoxy)phenyl)-6-(1-methylcyclopropoxy)-9H-purin-9-yl)methyl)picolinonitrile]
IC50 (DLD-1 cells; [1]): > 10000 nM
IC50 (DLD-1 BRCA2−/− cells; [2]): 1580 nM

Cc1cnc(Cn2c(-c3cccc(OCCCN(C)C)c3Cl)nc3c(OC4(C)CC4)ncnc32)s1 [Example T149, 3-(2-chloro-3-(6-(1-methylcyclopropoxy)-9-((5-methylthiazol-2-yl)methyl)-9H-purin-8-yl)phenoxy)-N,N-dimethylpropan-1-amine]
IC50 (DLD-1 cells; [5]): > 10000 nM
IC50 (DLD-1 BRCA2−/− cells; [6]): 316 nM

Cc1cc(OCCN2CCCC2)ncc1-c1nc2c(OC3(C)CC3)ncnc2n1Cc1ccccc1 [Example 21, 9-Benzyl-8-(4-methyl-6-(2-(pyrrolidin-1-yl)ethoxy)pyridin-3-yl)-6-(1-methylcyclopropoxy)-9H-purine]
IC50 (DLD-1 cells; [1]): > 10000 nM
IC50 (DLD-1 BRCA2−/− cells; [2]): 398 nM

COc1ccc(C)cc1Cn1c(-c2cccc(OCCCOCC(=O)O)c2Cl)nc2c(OC3(C)CC3)ncnc21 [Example U93, 2-(3-(2-chloro-3-(9-(2-methoxy-5-methylbenzyl)-6-(1-methylcyclopropoxy)-9H-purin-8-yl)phenoxy)propoxy)acetic acid]
IC50 (DLD-1 cells; [3]): > 10000 nM
IC50 (DLD-1 BRCA2−/− cells; [4]): 12.6 nM

CC(=O)N1CCN(c2cc(C)c(-c3nc4c(OC5(C)CC5)ncnc4n3Cc3ccccc3)cn2)CC1 [Example C2, 1-(4-(5-(9-benzyl-6-(1-methylcyclopropoxy)-9H-purin-8-yl)-4-methylpyridin-2-yl)piperazin-1-yl)ethan-1-one]
IC50 (DLD-1 cells; [1]): > 10000 nM
IC50 (DLD-1 BRCA2−/− cells; [2]): 316 nM

CC1(Oc2ncnc3c2nc(-c2ccc(OCCCN4CC[C@@H](O)C4)cc2Cl)n3Cc2cc(C(F)(F)F)ccn2)CC1 [Example T554, (R)-1-(3-(3-chloro-4-(6-(1-methylcyclopropoxy)-9-((4-(trifluoromethyl)pyridin-2-yl)methyl)-9H-purin-8-yl)phenoxy)propyl)pyrrolidin-3-ol]
IC50 (DLD-1 cells; [5]): > 10000 nM
IC50 (DLD-1 BRCA2−/− cells; [6]): 316 nM

COc1ccc(C(F)(F)F)cc1Cn1c(-c2ccc(OCC[C@H](C)C(=O)O)cc2Cl)nc2c(OC3(C)CC3)ncnc21 [Example U76, (S)-4-(3-chloro-4-(9-(2-methoxy-5-(trifluoromethyl)benzyl)-6-(1-methylcyclopropoxy)-9H-purin-8-yl)phenoxy)-2-methylbutanoic acid]
IC50 (DLD-1 cells; [3]): > 10000 nM
IC50 (DLD-1 BRCA2−/− cells; [4]): 200 nM

CC(C)C(CCOc1ccc(-c2nc3c(OC4(C)CC4)ncnc3n2Cc2cccc(Cl)c2)c(Cl)c1)C(=O)O (racemic) [Example T566, 4-(3-chloro-4-(9-(3-chlorobenzyl)-6-(1-methylcyclopropoxy)-9H-purin-8-yl)phenoxy)-2-isopropylbutanoic acid]
IC50 (DLD-1 cells; [5]): > 10000 nM
IC50 (DLD-1 BRCA2−/− cells; [6]): 158 nM

Cc1ccnc(Cn2c(-c3ccc(C(=O)NCCO)cc3Cl)nc3c(OC4(C)CC4)ncnc32)c1 [Example T119, 3-chloro-N-(2-hydroxyethyl)-4-(6-(1-methylcyclopropoxy)-9-((4-methylpyridin-2-yl)methyl)-9H-purin-8-yl)benzamide]
IC50 (DLD-1 cells; [5]): > 10000 nM
IC50 (DLD-1 BRCA2−/− cells; [6]): 794 nM
